Measured values taken from patent US20030199515A1, “Method for the preparation of crystalline tetrahydrobenzothiepines” (G.D. SEARLE, LLC, priority 2001, published 2003).

Assay: Water uptake experiments (Dynamic Vapor Sorption water sorption/desorption isotherms)
Assay type: physicochemical
Details: for hygroscopicity (in words): crystalline form
Experimental: Water sorption experiments are performed on a Dynamic Vapor Sorption (DVS) apparatus (DVS-1000 manufactured by Surface Measurements Systems, Inc.). Experiments are performed at 25° C. by initially drying the material of interest (about 10 mg sample) from 30% relative humidity (RH) (ambient room condition) to about […] in a stepwise fashion (10% RH step) by purging with dry nitrogen until no further weight change was observed. The samples are then exposed to a stepwise (10% RH steps) increase in RH from about 0 to about 90% RH. Each successive step is initiated when the change in weight over time at the relative humidity was less than 0.0003% ((dm/dt)/m0×100, where m is mass in mg, m0 is initial mass, and t is time in minutes). The sample is then taken through the reverse of the stepwise % RH increase. The data are collected on a computer and analyzed using SMS′ proprietary MS-Excel macro interface software.

Row | hygroscopicity (in words) | hygroscopicity (in words) (listed as form II) | weight gain of a dry sample (% of its own weight) when equilibrated under humid air (dry sample, equilibrated under 80% relative humidity (RH) air at 25° C.) | Compound
1 | hygroscopic | – | – | CCCCC1(CCCC)CS(=O)(=O)c2ccc(N(C)C)cc2[C@@H](c2ccc(OCc3ccc(C[N+]45CCN(CC4)CC5)cc3)cc2)[C@H]1O.[Cl-] [Form I, (4R,5R)-1-((4-(4-(3,3-dibutyl-7-(dimethylamino)-2,3,4,5-tetrahydro-4-hydroxy-1,1-dioxido-1-benzithiepin-5-yl)phenoxy)methyl)phenyl)methyl-4-aza-1-azoniabicyclo[2.2.2]octane Chloride]
2 | essentially nonhygroscopic | essentially non-hygroscopic | less than 1% | CCCCC1(CCCC)CS(=O)(=O)c2ccc(N(C)C)cc2[C@@H](c2ccc(OCc3ccc(C[N+]45CCN(CC4)CC5)cc3)cc2)[C@H]1O.[Cl-] [Form II, (4R,5R)-1-((4-(4-(3,3-dibutyl-7-(dimethylamino)-2,3,4,5-tetrahydro-4-hydroxy-1,1-dioxido-1-benzithiepin-5-yl)phenoxy)methyl)phenyl)methyl-4-aza-1-azoniabicyclo[2.2.2]octane Chloride]
